Here are results for 37 compounds from US10562887B2, “Triazolones and tetrazolones as inhibitors of ROCK” (BRISTOL-MYERS SQUIBB COMPANY, priority 2016, dated 2020).

For orientation: IC50 means the midpoint of a concentration-inhibition curve.

ROCK2, sequence (O75116 whole entry, species assumed): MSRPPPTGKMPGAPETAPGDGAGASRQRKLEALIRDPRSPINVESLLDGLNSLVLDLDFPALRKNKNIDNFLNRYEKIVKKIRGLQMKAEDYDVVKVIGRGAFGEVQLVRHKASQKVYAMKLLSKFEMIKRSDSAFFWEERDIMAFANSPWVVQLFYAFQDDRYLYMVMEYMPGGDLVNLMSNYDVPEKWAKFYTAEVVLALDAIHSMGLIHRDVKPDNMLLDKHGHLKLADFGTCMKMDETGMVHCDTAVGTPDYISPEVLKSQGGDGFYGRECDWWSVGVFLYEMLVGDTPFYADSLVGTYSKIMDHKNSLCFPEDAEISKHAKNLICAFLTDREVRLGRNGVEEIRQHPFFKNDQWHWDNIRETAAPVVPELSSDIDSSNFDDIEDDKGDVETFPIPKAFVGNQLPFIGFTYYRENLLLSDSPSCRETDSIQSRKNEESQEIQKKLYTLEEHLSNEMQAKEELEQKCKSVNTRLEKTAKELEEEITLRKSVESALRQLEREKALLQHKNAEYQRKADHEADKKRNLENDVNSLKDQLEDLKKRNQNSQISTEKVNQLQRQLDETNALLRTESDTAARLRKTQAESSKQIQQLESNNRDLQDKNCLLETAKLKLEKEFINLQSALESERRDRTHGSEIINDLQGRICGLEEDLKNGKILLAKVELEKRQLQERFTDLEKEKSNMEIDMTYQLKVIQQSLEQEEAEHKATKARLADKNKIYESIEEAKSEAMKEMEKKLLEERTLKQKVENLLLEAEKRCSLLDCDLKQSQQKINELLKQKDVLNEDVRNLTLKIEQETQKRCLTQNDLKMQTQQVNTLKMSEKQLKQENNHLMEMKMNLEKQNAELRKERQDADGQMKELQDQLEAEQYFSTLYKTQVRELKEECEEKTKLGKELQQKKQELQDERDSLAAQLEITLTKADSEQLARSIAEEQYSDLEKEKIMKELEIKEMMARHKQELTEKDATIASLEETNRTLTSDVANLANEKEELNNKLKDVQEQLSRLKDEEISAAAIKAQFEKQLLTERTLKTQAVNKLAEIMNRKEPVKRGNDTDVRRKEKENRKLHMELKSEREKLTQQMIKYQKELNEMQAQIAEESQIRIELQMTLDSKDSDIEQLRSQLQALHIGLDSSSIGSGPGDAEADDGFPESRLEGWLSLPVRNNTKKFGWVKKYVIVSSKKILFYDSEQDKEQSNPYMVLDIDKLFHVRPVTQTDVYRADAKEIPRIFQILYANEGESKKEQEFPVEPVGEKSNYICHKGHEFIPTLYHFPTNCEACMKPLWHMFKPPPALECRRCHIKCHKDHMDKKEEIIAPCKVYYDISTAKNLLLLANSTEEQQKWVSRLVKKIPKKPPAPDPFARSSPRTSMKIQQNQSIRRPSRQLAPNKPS

This experiment has as its target ROCK2 (Homo sapiens (Human), UniProt O75116). Kind of experiment: ROCK2 assay (peptide phosphorylation, LABCHIP 3000 Reader). The format is biochemical. The following applies: 5 μM ATP, 1.5 μM peptide substrate. Put shortly:
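Human ROCK2 reaction in 20 mM HEPES pH 7.5, 20 mM MgCl2, 0.015% Brij-35, 4 mM DTT, with 5 μM ATP and 1.5 μM FITC-labelled peptide, DMSO <2%. Stopped with EDTA; phosphorylated and unphosphorylated peptide separated by microfluidic mobility shift. IC50 from dose-response curve fit.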
`COc1cc(Cn2c(C)nn(-c3ccc(-c4cn[nH]c4)cc3)c2=O)cc(OC)c1` [Example 120, 1-(4-(1H-pyrazol-4-yl)phenyl)-4-(3,5-dimethoxybenzyl)-3-methyl-1H-1,2,4-triazol-5(4H)-one] returned an IC50 of 250 to 2000 nM.

Consider `COc1cc(-n2ncn(Cc3cc(F)ccc3F)c2=O)ccc1-c1cn[nH]c1` [Example 25, 4-(2,5-difluorobenzyl)-1-(3-methoxy-4-(1H-pyrazol-4-yl)phenyl)-1H-1,2,4-triazol-5(4H)-one], for which the IC50 fell in the range of 5 to 50 nM.

In the case of `COc1cc(-n2nnn(Cc3ccccc3F)c2=O)ccc1-c1cn[nH]c1` [Example 183, 1-(2-fluorobenzyl)-4-(3-methoxy-4-(1H-pyrazol-4-yl)phenyl)-1H-tetrazol-5(4H)-one], the half-maximal inhibitory concentration (IC50) fell in the range of 50 to 250 nM.

`COc1cccc(Cn2c(C(C)(C)O)nn(-c3ccc(-c4cn[nH]c4)cc3)c2=O)c1` [Example 134, 1-(4-(1H-pyrazol-4-yl)phenyl)-3-(2-hydroxypropan-2-yl)-4-(3-methoxybenzyl)-1H-1,2,4-triazol-5(4H)-one] returned an IC50 below 5 nM.

In the case of `COc1cc(-n2nnn(Cc3ccc(F)cc3)c2=O)ccc1-c1cn[nH]c1` [Example 186, 1-(4-fluorobenzyl)-4-(3-methoxy-4-(1H-pyrazol-4-yl)phenyl)-1H-tetrazol-5(4H)-one], the IC50 is 250 to 2000 nM.

Compound `COc1cc(-n2ncn(Cc3cccc(OC(F)F)c3)c2=O)ccc1-c1cn[nH]c1` [Example 37, 4-(3-(difluoromethoxy)benzyl)-1-(3-methoxy-4-(1H-pyrazol-4-yl)phenyl)-1H-1,2,4-triazol-5(4H)-one] displayed an IC50 of 5 to 50 nM.

In turn, `COc1cccc(Cn2c(CO)nn(-c3ccc(-c4cn[nH]c4)cc3)c2=O)c1F` [Example 160, 1-(4-(1H-pyrazol-4-yl)phenyl)-4-(2-fluoro-3-methoxybenzyl)-3-(hydroxymethyl)-1H-1,2,4-triazol-5(4H)-one] yielded an IC50 of 250 to 2000 nM.

Compound `COc1cc(-n2nc(C)n(Cc3cc(F)ccc3F)c2=O)ccc1-c1cn[nH]c1` [Example 91, 4-(2,5-difluorobenzyl)-1-(3-methoxy-4-(1H-pyrazol-4-yl)phenyl)-3-methyl-1H-1,2,4-triazol-5(4H)-one] displayed an IC50 of 5 to 50 nM.

Turning to `COc1cc(-c2cn[nH]c2)ccc1-n1cnn(Cc2cccc(F)c2)c1=O` [Example 12, 1-(3-fluorobenzyl)-4-(2-methoxy-4-(1H-pyrazol-4-yl)phenyl)-1H-1,2,4-triazol-5(4H)-one], the IC50 is 50 to 250 nM.

As for `COc1cccc(Cn2c(C)nn(-c3ccc(-c4cn[nH]c4)c(OC)c3)c2=O)c1` [Example 89, 1-(3-methoxy-4-(1H-pyrazol-4-yl)phenyl)-4-(3-methoxybenzyl)-3-methyl-1H-1,2,4-triazol-5(4H)-one], the IC50 was below 5 nM.

`COc1cc(-n2nc(C)n(Cc3cc(F)cc(F)c3)c2=O)ccc1-c1cn[nH]c1` [Example 99, 4-(3,5-difluorobenzyl)-1-(3-methoxy-4-(1H-pyrazol-4-yl)phenyl)-3-methyl-1H-1,2,4-triazol-5(4H)-one] displayed an IC50 of 5 to 50 nM.

In turn, `CCc1cc(-n2nc(C)n(Cc3c(F)cccc3F)c2=O)ccc1-c1cn[nH]c1` [Example 116, 4-(2,6-difluorobenzyl)-1-(3-ethyl-4-(1H-pyrazol-4-yl)phenyl)-3-methyl-1H-1,2,4-triazol-5(4H)-one] showed a 50% inhibitory concentration (IC50) of 250 to 2000 nM.

Regarding `Cc1nn(Cc2ccccc2)c(=O)n1-c1ccc(-c2cn[nH]c2)cc1` [Example 59, 4-(4-(1H-pyrazol-4-yl)phenyl)-1-benzyl-3-methyl-1H-1,2,4-triazol-5(4H)-one], the IC50 lay within 250 to 2000 nM.

In the case of `COc1cc(-n2nc(C)n(Cc3cccc(F)c3)c2=O)ccc1-c1cn[nH]c1` [Example 90, 4-(3-fluorobenzyl)-1-(3-methoxy-4-(1H-pyrazol-4-yl)phenyl)-3-methyl-1H-1,2,4-triazol-5(4H)-one], the concentration for half-maximal inhibition (IC50) was below 5 nM.

Compound `O=c1n(Cc2ccccc2)nnn1-c1ccc(-c2cn[nH]c2)cc1` [Example 178, 1-(4-(1H-pyrazol-4-yl)phenyl)-4-benzyl-1H-tetrazol-5(4H)-one] came in with a half-maximal inhibitory concentration (IC50) of 5 to 50 nM.

In turn, `COc1cc(-n2nc(C)n(C(C)c3ccccc3)c2=O)ccc1-c1cn[nH]c1` (stereo not shown) [Example 93, 1-(3-methoxy-4-(1H-pyrazol-4-yl)phenyl)-3-methyl-4-(1-phenylethyl)-1H-1,2,4-triazol-5(4H)-one] gave an IC50 of 5 to 50 nM.

In turn, `CCc1cc(-n2nc(C)n(Cc3cccc(F)c3)c2=O)ccc1-c1cn[nH]c1` [Example 106, 1-(3-ethyl-4-(1H-pyrazol-4-yl)phenyl)-4-(3-fluorobenzyl)-3-methyl-1H-1,2,4-triazol-5(4H)-one] came in with an IC50 of 5 to 50 nM.

As to `CC(C)(O)c1nn(-c2ccc(-c3cn[nH]c3)cc2)c(=O)n1Cc1cccc(F)c1` [Example 135, 1-(4-(1H-pyrazol-4-yl)phenyl)-4-(3-fluorobenzyl)-3-(2-hydroxypropan-2-yl)-1H-1,2,4-triazol-5(4H)-one], the IC50 was 5 to 50 nM.

`O=c1n(Cc2cccc(F)c2)cnn1-c1ccc(-c2cn[nH]c2)cc1` [Example 19, 1-(4-(1H-pyrazol-4-yl)phenyl)-4-(3-fluorobenzyl)-1H-1,2,4-triazol-5(4H)-one] displayed an IC50 below 5 nM.

`CCc1cc(-n2nc(C)n(CCc3ccccc3)c2=O)ccc1-c1cn[nH]c1` [Example 110, 1-(3-ethyl-4-(1H-pyrazol-4-yl)phenyl)-3-methyl-4-phenethyl-1H-1,2,4-triazol-5(4H)-one] had a concentration for half-maximal inhibition (IC50) of 250 to 2000 nM.

In turn, `COc1cc(-n2ncn(Cc3ccccc3Cl)c2=O)ccc1-c1cn[nH]c1` [Example 32, 4-(2-chlorobenzyl)-1-(3-methoxy-4-(1H-pyrazol-4-yl)phenyl)-1H-1,2,4-triazol-5(4H)-one] displayed an IC50 of 5 to 50 nM.

For the compound `O=c1n(Cc2cccc(F)c2)nnn1-c1ccc(-c2cn[nH]c2)cc1` [Example 173, 1-(4-(1H-pyrazol-4-yl)phenyl)-4-(3-fluorobenzyl)-1H-tetrazol-5(4H)-one], the half-maximal inhibitory concentration (IC50) is 50 to 250 nM.

`Cc1nn(-c2ccc(-c3cn[nH]c3)cc2)c(=O)n1CCc1ccccc1` [Example 85, 1-(4-(1H-pyrazol-4-yl)phenyl)-3-methyl-4-phenethyl-1H-1,2,4-triazol-5(4H)-one] returned an IC50 of 50 to 250 nM.

`COc1cccc(Cn2cnn(-c3ccc(-c4ccnc5[nH]ccc45)cc3)c2=O)c1` [Example 169, 1-(4-(1H-pyrrolo[2,3-b]pyridin-4-yl)phenyl)-4-(3-methoxybenzyl)-1H-1,2,4-triazol-5(4H)-one] had a 50% inhibitory concentration (IC50) below 5 nM.

The compound `Cc1nn(-c2ccc(-c3cn[nH]c3)cc2)c(=O)n1Cc1cc(F)cc(F)c1` [Example 96, 1-(4-(1H-pyrazol-4-yl)phenyl)-4-(3,5-difluorobenzyl)-3-methyl-1H-1,2,4-triazol-5(4H)-one] had an IC50 of 5 to 50 nM.

`CCc1cc(-n2ncn(Cc3cccc(OC(F)F)c3)c2=O)ccc1-c1cn[nH]c1` [Example 46, 4-(3-(difluoromethoxy)benzyl)-1-(3-ethyl-4-(1H-pyrazol-4-yl)phenyl)-1H-1,2,4-triazol-5(4H)-one]: the IC50 was 50 to 250 nM.

Regarding `O=c1n(-c2ccc(-c3cn[nH]c3)cc2)cnn1Cc1cc(F)ccc1F` [Example 4, 4-(4-(1H-pyrazol-4-yl)phenyl)-1-(2,5-difluorobenzyl)-1H-1,2,4-triazol-5(4H)-one], the IC50 lay within 250 to 2000 nM.

On to `Cc1nn(-c2ccc(-c3cn[nH]c3)cc2)c(=O)n1Cc1ccccc1F` [Example 87, 2-(4-(1H-pyrazol-4-yl)phenyl)-4-(2-fluorobenzyl)-5-methyl-2,4-dihydro-3H-1,2,4-triazol-3-one], for which the IC50 was 5 to 50 nM.

The compound `COc1cc(-n2cnn(CCc3ccccc3)c2=O)ccc1-c1cn[nH]c1` [Example 9, 4-(3-methoxy-4-(1H-pyrazol-4-yl)phenyl)-1-phenethyl-1H-1,2,4-triazol-5(4H)-one] registered an IC50 of 50 to 250 nM.

The compound `COc1cc(-n2nnn(Cc3cccc(F)c3)c2=O)ccc1-c1cn[nH]c1` [Example 180, 1-(3-fluorobenzyl)-4-(3-methoxy-4-(1H-pyrazol-4-yl)phenyl)-1H-tetrazol-5(4H)-one] showed an IC50 of 5 to 50 nM.

For `COc1cc(Cn2c(CO)nn(-c3ccc(-c4cn[nH]c4)cc3)c2=O)ccc1F` [Example 158, 1-(4-(1H-pyrazol-4-yl)phenyl)-4-(4-fluoro-3-methoxybenzyl)-3-(hydroxymethyl)-1H-1,2,4-triazol-5(4H)-one], the IC50 was 5 to 50 nM.

`COc1cc(F)cc(Cn2c(CN3CCOCC3)nn(-c3ccc(-c4cn[nH]c4)cc3)c2=O)c1` [Example 149, 1-(4-(1H-pyrazol-4-yl)phenyl)-4-(3-fluoro-5-methoxybenzyl)-3-(morpholinomethyl)-1H-1,2,4-triazol-5(4H)-one] registered an IC50 of 5 to 50 nM.

Regarding `O=c1n(-c2ccc(-c3cn[nH]c3)cc2)nc(CO)n1Cc1cc(F)ccc1F` [Example 129, 1-(4-(1H-pyrazol-4-yl)phenyl)-4-(2,5-difluorobenzyl)-3-(hydroxymethyl)-1H-1,2,4-triazol-5(4H)-one], the half-inhibitory concentration (IC50) was in the range of 5 to 50 nM.

`Cc1nn(-c2ccc(-c3cn[nH]c3)cc2)c(=O)n1Cc1cccc(C#N)c1` [Example 103, 3-((1-(4-(1H-pyrazol-4-yl)phenyl)-3-methyl-5-oxo-1H-1,2,4-triazol-4(5H)-yl)methyl)benzonitrile] returned an IC50 of 250 to 2000 nM.

In the case of `Cc1nn(CCc2ccccc2)c(=O)n1-c1ccc(-c2cn[nH]c2)cc1` [Example 67, 4-(4-(1H-pyrazol-4-yl)phenyl)-3-methyl-1-phenethyl-1H-1,2,4-triazol-5(4H)-one], the IC50 lay within 250 to 2000 nM.

Compound `COc1cc(-c2cn[nH]c2)ccc1-n1c(C)nn(C(C)c2ccccc2)c1=O` (stereo not shown) [Example 75, 4-(2-methoxy-4-(1H-pyrazol-4-yl)phenyl)-3-methyl-1-(1-phenylethyl)-1H-1,2,4-triazol-5(4H)-one] displayed an IC50 of 250 to 2000 nM.

Take `COc1cc(-n2ncn(C(C)c3ccccc3)c2=O)ccc1-c1cn[nH]c1` (stereo not shown) [Example 27, 1-(3-methoxy-4-(1H-pyrazol-4-yl)phenyl)-4-(1-phenylethyl)-1H-1,2,4-triazol-5(4H)-one]: the concentration for half-maximal inhibition (IC50) is below 5 nM.
